Legend:
V600E-mutated B-RAF = V600E-mutated B-RAF (Homo sapiens, UniProt P15056, V600E); assay: In vitro assay for inhibition of mutant B-RAF kinase (recombinant V600E-mutated B-RAF, MEK (K97R) substrate); assay type: biochemical; details: 10 nM recombinant V600E-mutated B-RAF
Method: The ability of compounds described herein to inhibit RAF kinase activity were determined from biochemical kinase inhibition assays using recombinant RAF proteins as known in the art.
Solutions of varying concentrations of test compounds or vehicle were added to 10 nM recombinant V600E-mutated B-RAF proteins incubated in the presence of different concentrations of ATP and […] (K97R) as substrate, as previously described (Wilhelm, S. M., et al., Cancer Res., 64: 7099-7109, 2004; Mason, C. S., et al.; EMBO J. 18: 2137-2.148, 1999; Marais, R., et al., J. Biol. Chem., 272: 4378-4383, 1997). At least triplicate determinations for each individual test compound concentration were made and data plotted as mean±standard deviation relative to the control vehicle.

[1] = test system: A375 cells (V600E activated B-RAF); assay: In vitro tumor cell growth inhibition, MTT, 72 hours; assay type: cell-based; details: Homo sapiens, A-375, 72 hours incubation
Method: Briefly, growth inhibition of cells containing V600E activated B-RAF (A375, Colo205) versus cell lines with wild-type B-RAF (A431) were measured under anchorage-dependent conditions using MTT (3-(4,5-dimethylthiazol-2-yl)-2,5-diphenyltetrazolium bromide), following 72 hours incubation with either compound or vehicle, as previously described (Haass, N. K., et al., Clinical Cancer Res., 14: 230-239, 2008): Cell lines are obtained from the American Type Tissue Culture Collection (Maryland, USA) and cultured in media containing heat-inactivated 10% fetal bovine serum. Cell cultures were also maintained in 10 U/mL, penicillin, 100 μg/mL streptomycin and 2 mM glutamine. At least triplicate determinations for each individual test compound concentration were made and data plotted as mean±standard deviation relative to the control vehicle.

V600E-mutated B-RAF, sequence (P15056 whole entry V600E): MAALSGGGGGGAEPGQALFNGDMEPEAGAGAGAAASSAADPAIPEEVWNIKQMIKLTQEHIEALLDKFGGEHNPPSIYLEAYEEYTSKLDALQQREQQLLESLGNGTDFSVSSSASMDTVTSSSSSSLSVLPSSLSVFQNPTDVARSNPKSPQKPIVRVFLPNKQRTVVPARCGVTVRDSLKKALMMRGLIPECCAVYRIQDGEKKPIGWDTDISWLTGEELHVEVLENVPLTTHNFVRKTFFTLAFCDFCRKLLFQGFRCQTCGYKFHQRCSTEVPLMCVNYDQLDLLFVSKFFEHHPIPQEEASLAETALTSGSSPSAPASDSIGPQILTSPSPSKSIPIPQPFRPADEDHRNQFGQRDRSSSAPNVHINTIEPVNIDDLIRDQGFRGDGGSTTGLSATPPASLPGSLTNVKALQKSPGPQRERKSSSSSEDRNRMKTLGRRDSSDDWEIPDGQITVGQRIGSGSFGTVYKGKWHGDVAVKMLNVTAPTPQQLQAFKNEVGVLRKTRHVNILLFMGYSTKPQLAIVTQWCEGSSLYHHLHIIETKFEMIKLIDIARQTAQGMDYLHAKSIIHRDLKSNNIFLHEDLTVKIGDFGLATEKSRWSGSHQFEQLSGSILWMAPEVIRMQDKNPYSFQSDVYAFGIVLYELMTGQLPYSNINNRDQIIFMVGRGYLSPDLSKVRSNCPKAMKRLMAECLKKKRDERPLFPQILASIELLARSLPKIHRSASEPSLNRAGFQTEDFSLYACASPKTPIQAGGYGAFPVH

Row | IC50 (V600E-mutated B-RAF) | IC50 [1] | Compound
1 | ≤ 0.1 µM | – | Cc1nc(-c2ccncc2)c(-c2cccc(NC(=O)Nc3ccc(Cl)c(C(F)(F)F)c3)c2)s1 [Example 2, 1-(4-chloro-3-(trifluoromethyl)phenyl)-3-(3-(2-methyl-4-(pyridin-4-yl)thiazol-5-yl)phenyl)urea]
2 | ≤ 0.1 µM | 1 to 10 µM | Cc1nc(-c2ccncc2)c(-c2cccc(NC(=O)Nc3ccc(Cl)cc3)c2)s1 [Example 3, 1-(4-chlorophenyl)-3-(3-(2-methyl-4-(pyridin-4-yl)thiazol-5-yl)phenyl)urea]
3 | 0.1 to 1 µM | – | Cc1nc(-c2ccncc2)c(-c2cccc(NC(=O)Nc3ccc(F)cc3)c2)s1 [Example 4, 1-(4-fluorophenyl)-3-(3-(2-methyl-4-(pyridin-4-yl)thiazol-5-yl)phenyl)urea]
4 | 0.1 to 1 µM | – | Cc1nc(-c2ccncc2)c(-c2cccc(NC(=O)Nc3cc(F)ccc3F)c2)s1 [Example 5, 1-(2,5-difluorophenyl)-3-(3-(2-methyl-4-(pyridin-4-yl)thiazol-5-yl)phenyl)urea]
5 | 0.1 to 1 µM | – | Cc1nc(-c2ccncc2)c(-c2cccc(NC(=O)Nc3c(F)cccc3F)c2)s1 [Example 6, 1-(2,6-difluorophenyl)-3-(3-(2-methyl-4-(pyridin-4-yl)thiazol-5-yl)phenyl)urea]
6 | ≤ 0.1 µM | – | Cc1ccc(NC(=O)Nc2ccc(F)c(-c3sc(C)nc3-c3ccncc3)c2)cc1 [Example 8, 1-(4-fluoro-3-(2-methyl-4-(pyridin-4-yl)thiazol-5-yl)phenyl)-3-p-tolylurea]
7 | ≤ 0.1 µM | 0.1 to 1 µM | Cc1nc(-c2ccncc2)c(-c2cccc(NC(=O)Nc3ccc(C(F)(F)F)cc3)c2)s1 [Example 9, 1-(3-(2-methyl-4-(pyridin-4-yl)thiazol-5-yl)phenyl)-3-(4-(trifluoromethyl)phenyl)urea]
8 | ≤ 0.1 µM | – | Cc1nc(-c2ccncc2)c(-c2ccc(F)c(NC(=O)Nc3ccc(Cl)c(Cl)c3)c2)s1 [Example 11, 1-(3,4-dichlorophenyl)-3-(2-fluoro-5-(2-methyl-4-(pyridin-4-yl)thiazol-5-yl)phenyl)urea]
9 | ≤ 0.1 µM | – | Cc1nc(-c2ccncc2)c(-c2ccc(F)c(NC(=O)Nc3ccc(Cl)cc3F)c2)s1 [Example 12, 1-(4-chloro-2-fluorophenyl)-3-(2-fluoro-5-(2-methyl-4-(pyridin-4-yl)thiazol-5-yl)phenyl)urea]
10 | ≤ 0.1 µM | 1 to 10 µM | Cc1nc(-c2ccncc2)c(-c2ccc(F)c(NC(=O)Nc3cccc(Cl)c3)c2)s1 [Example 13, 1-(3-chlorophenyl)-3-(2-fluoro-5-(2-methyl-4-(pyridin-4-yl)thiazol-5-yl)phenyl)urea]
11 | ≤ 0.1 µM | 1 to 10 µM | Cc1nc(-c2ccncc2)c(-c2ccc(F)c(NC(=O)Nc3ccc(C(F)(F)F)cc3)c2)s1 [Example 14, 1-(2-fluoro-5-(2-methyl-4-(pyridin-4-yl)thiazol-5-yl)phenyl)-3-(4-(trifluoromethyl)phenyl)urea]
12 | 0.1 to 1 µM | 1 to 10 µM | Cc1nc(-c2ccncc2)c(-c2cccc(NC(=O)Nc3ccc(C(F)(F)F)cc3)c2F)s1 [Example 15, 1-(2-fluoro-3-(2-methyl-4-(pyridin-4-yl)thiazol-5-yl)phenyl)-3-(4-(trifluoromethyl)phenyl)urea]
13 | ≤ 0.1 µM | > 10 µM | Cc1nc(-c2ccncc2)c(-c2ccc(F)c(NC(=O)Nc3cccc(C(F)(F)F)c3)c2)s1 [Example 16, 1-(2-fluoro-5-(2-methyl-4-(pyridin-4-yl)thiazol-5-yl)phenyl)-3-(3-(trifluoromethyl)phenyl)urea]
14 | ≤ 0.1 µM | > 10 µM | Cc1nc(-c2ccncc2)c(-c2cccc(NC(=O)Nc3ccc(S(C)(=O)=O)cc3)c2)s1 [Example 17, 1-(3-(2-methyl-4-(pyridin-4-yl)thiazol-5-yl)phenyl)-3-(4-(methylsulfonyl)phenyl)urea]
15 | 0.1 to 1 µM | – | Cc1nc(-c2ccncc2)c(-c2cccc(NC(=O)Nc3ccc(Cl)cc3)c2F)s1 [Example 18, 1-(4-chlorophenyl)-3-(2-fluoro-3-(2-methyl-4-(pyridin-4-yl)thiazol-5-yl)phenyl)urea]
16 | ≤ 0.1 µM | – | Cc1ccc(NC(=S)Nc2cccc(-c3sc(C)nc3-c3ccncc3)c2)cc1 [Example 19, 1-(3-(2-methyl-4-(pyridin-4-yl)thiazol-5-yl)phenyl)-3-p-tolylthiourea]
17 | 0.1 to 1 µM | – | Cc1nc(-c2ccnc(N)c2)c(-c2cccc(NC(=O)Nc3ccc(Cl)cc3)c2F)s1 [Example 23, 1-(3-(4-(2-aminopyridin-4-yl)-2-methylthiazol-5-yl)-2-fluorophenyl)-3-(4-chlorophenyl)urea]

Row | IC50 (V600E-mutated B-RAF) | IC50 [1] | Compound
18 | 0.1 to 1 µM | – | Cc1ccc(NC(=O)Nc2cccc(-c3sc(C(C)(C)C)nc3-c3ccncc3)c2)cc1 [Example 27, 1-(3-(2-tert-butyl-4-(pyridin-4-yl)thiazol-5-yl)phenyl)-3-p-tolylurea]
19 | 1 to 10 µM | – | COCCNc1cc(-c2nc(C(C)(C)C)sc2-c2cccc(NC(=O)Nc3ccc(C)cc3)c2)ccn1 [Example 28, 1-(3-(2-tert-butyl-4-(2-(2-methoxyethylamino)pyridin-4-yl)thiazol-5-yl)phenyl)-3-p-tolylurea]
20 | ≤ 0.1 µM | – | Cc1ccc(NC(=O)Nc2cccc(-c3sc(C(C)(C)C)nc3-c3ccnc(NCCO)c3)c2)cc1 [Example 29, 1-(3-(2-tert-butyl-4-(2-(2-hydroxyethylamino)pyridin-4-yl)thiazol-5-yl)phenyl)-3-p-tolylurea]
21 | ≤ 0.1 µM | – | Cc1ccc(NC(=O)Nc2cccc(-c3sc(C(C)(C)C)nc3-c3ccnc(NCCN(C)C)c3)c2)cc1 [Example 30, 1-(3-(2-tert-butyl-4-(2-(2-(dimethylamino)ethylamino)pyridin-4-yl)thiazol-5-yl)phenyl)-3-p-tolylurea]
22 | ≤ 0.1 µM | – | Cc1ccc(NC(=O)Nc2cccc(-c3sc(C(C)(C)C)nc3-c3ccnc(NCCN4CCCC4)c3)c2)cc1 [Example 31, 1-(3-(2-tert-butyl-4-(2-(2-(pyrrolidin-1-yl)ethylamino)pyridin-4-yl)thiazol-5-yl)phenyl)-3-p-tolylurea]
23 | ≤ 0.1 µM | – | COC(=O)N[C@@H](C)CNc1cc(-c2nc(C(C)(C)C)sc2-c2cccc(NC(=O)Nc3ccc(C)cc3)c2)ccn1 [Example 32, (S)-methyl 1-(4-(2-tert-butyl-5-(3-(3-p-tolylureido)phenyl)thiazol-4-yl)pyridin-2-ylamino)propan-2-ylcarbamate]
24 | ≤ 0.1 µM | – | O=C(Nc1ccc(Cl)cc1)Nc1cc(-c2sc(NCCN3CCOCC3)nc2-c2ccncc2)ccc1F [Example 36, 1-(4-chlorophenyl)-3-(2-fluoro-5-(2-(2-morpholinoethylamino)-4-(pyridin-4-yl)thiazol-5-yl)phenyl)urea]
25 | 0.1 to 1 µM | – | Nc1nc(-c2ccncc2)c(-c2cccc(NC(=O)Nc3ccc(C(F)(F)F)cc3)c2F)s1 [Example 38, 1-(3-(2-amino-4-(pyridin-4-yl)thiazol-5-yl)-2-fluorophenyl)-3-(4-(trifluoromethyl)phenyl)urea]
26 | 1 to 10 µM | – | Nc1nc(-c2ccncc2)c(-c2cccc(NC(=O)Nc3ccc(Cl)cc3)c2F)s1 [Example 39, 1-(3-(2-amino-4-(pyridin-4-yl)thiazol-5-yl)-2-fluorophenyl)-3-(4-chlorophenyl)urea]
27 | ≤ 0.1 µM | – | Nc1nc(-c2ccncc2)c(-c2ccc(F)c(NC(=O)Nc3ccc(Cl)cc3)c2)s1 [Example 40, 1-(5-(2-amino-4-(pyridin-4-yl)thiazol-5-yl)-2-fluorophenyl)-3-(4-chlorophenyl)urea]
28 | 0.1 to 1 µM | – | Cc1nc(-c2ccncc2)c(-c2cccc(NS(=O)(=O)c3c(F)cccc3F)c2)s1 [Example 42, 2,6-difluoro-N-(3-(2-methyl-4-(pyridin-4-yl)thiazol-5-yl)phenyl)benzenesulfonamide]
29 | 1 to 10 µM | – | Cc1nc(-c2ccnc(N)c2)c(-c2cccc(NS(=O)(=O)c3c(F)cccc3F)c2)s1 [Example 43, N-(3-(4-(2-aminopyridin-4-yl)-2-methylthiazol-5-yl)phenyl)-2,6-difluorobenzenesulfonamide]
30 | 0.1 to 1 µM | – | CC(C)(C)c1nc(-c2ccncc2)c(-c2cccc(NS(=O)(=O)c3c(F)cccc3F)c2)s1 [Example 44, N-(3-(2-tert-butyl-4-(pyridin-4-yl)thiazol-5-yl)phenyl)-2,6-difluorobenzenesulfonamide]
31 | 0.1 to 1 µM | – | Cc1ccc(CC(=O)Nc2cccc(-c3sc(C)nc3-c3ccnc(N)c3)c2)cc1 [Example 45, N-[3-(2-Methyl-4-(2-aminopyridin-4-yl)-thiazol-5-yl)-phenyl]-p-tolylacetamide]
32 | 1 to 10 µM | – | Cc1ccc(CC(=O)Nc2cccc(-c3sc(C(C)(C)C)nc3-c3ccncc3)c2)cc1 [Example 46, N-(3-(2-tert-butyl-4-(pyridin-4-yl)thiazol-5-yl)phenyl)-2-p-tolylacetamide]
33 | > 10 µM | – | CCn1cc(-c2cccc(NC(=O)Nc3ccc(S(=O)(=O)N4CCCC4)cc3)c2)c(-c2ccncc2)n1 [Example 58, 1-(3-(1-ethyl-3-(pyridin-4-yl)-1H-pyrazol-4-yl)phenyl)-3-(4-(pyrrolidin-1-ylsulfonyl)phenyl)urea]
